Data taken from patent US20110275559A1, “Long-Acting Y2 and/or Y4 Receptor Agonists” (Novo Nordisk A/S, priority 2008, published 2011).
Marks after values point to notes of the source that are not given here.

Experiments:
[1] = system: lean C57BL/6 mice; assay: Acute food intake in fasted lean mice (BioDAQ, fasting-induced refeeding); type: in vivo; conditions: for Mean cumulative food intake / Mean cumulative food intake [g]: Table 5, Study 6A
Method: Acute food intake in mice: Lean C57BL male mice are obtained from Charles River, Japan. They are maintained on a 12:12 light:dark cycle (lights off at 10:00 AM, lights on at 10:00 PM), fed pelleted D12450B rodent diet (Research Diets, Inc., New Brunswick, N.J.), and allowed water ad libitum. The mice arrive at 7-8 weeks of age and are acclimatized in the BioDAQ system a minimum of two weeks prior to study. On the day of study, mice are 9-12 weeks old. They are fasted overnight (20-24 h) with free access to water. The day of the study, mice are dosed with s.c. injection (dose volume=10 mL/kg), returned to their cage, and pre-weighed food is immediately placed in the cage. […] When the mice eat the weight reduction of the content of the food-tray is registered. Data is registered each time there is a change in the weight of the individual food-tray. Cumulative food intake is calculated by subtracting the food weight at each time point from the starting food weight.
Mice were administrated a single dose of the peptides (1 μmol/kg s.c.) 30 min before food return and cumulative food intake was measured over 24 h. […] One way ANOVA was carried for each time point out using the software Graph-Pad Prism, version 5.0. The statistical method used for the data in FIG. 1A was an unpaired t-test using the software Graph-Pad Prism, version 5.0. The statistical method used for the data in FIG. 1B and Table 4 was ANOVA, Dunnetts post hoc. Stars in FIGS. 1A and 1B indicate significance versus the vehicle group *) p<0.05, **) p<0.01, ***) p<0.001.
Fasted lean C57BL/6 mice were administrated a single subcutaneous injection of vehicle or peptide approximately 30 min before food return and the cumulative food intake was measured subsequently. One way ANOVA was carried out for each time point using the software Graph-Pad Prism, version 5.0.

[2] = in vivo; conditions: Göttingen, minipig, iv
Procedure, shortened: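 Catheterised mini-pigs received compound i.v. at 10 nmol/kg in pH 4.0 phosphate/NaCl/tween vehicle, or alternatively i.v. or s.c. at 1–30 nmol/kg in pH 8.0 K2HPO4/tween. Stabilised plasma was sampled up to 13 days and assayed by LC-MS (LLOQ 2 nM). Half-life came from non-compartmental analysis of individual animal profiles.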

[3] = Adrian T. E. et al, Gut (1978), 19, pp 907-909; cited from earlier work

Question: What does the source list for CC[C@H](C)[C@H](NC(=O)[C@H](Cc1ccc(O)cc1)NC(=O)[C@H](CCCNC(=N)N)NC(=O)[C@H](CCCNC(=N)N)NC(=O)[C@H](CC(C)C)NC(=O)[C@H](CC(=O)O)NC(=O)[C@H](C)NC(=O)[C@H](C)NC(=O)[C@H](Cc1ccc(O)cc1)NC(=O)[C@H](CCC(N)=O)NC(=O)[C@H](C)NC(=O)[C@H](CCSC)NC(=O)[C@H](CCC(N)=O)NC(=O)[C@H](CCC(=O)O)NC(=O)[C@@H]1CCCN1C(=O)[C@@H](NC(=O)[C@H](C)NC(=O)[C@H](CC(N)=O)NC(=O)[C@H](CC(=O)O)NC(=O)CNC(=O)[C@@H]1CCCN1C(=O)[C@H](Cc1ccc(O)cc1)NC(=O)[C@@H](NC(=O)[C@@H]1CCCN1C(=O)[C@H](CCC(=O)O)NC(=O)[C@H](CC(C)C)NC(=O)[C@@H]1CCCN1C(=O)[C@H](C)N)C(C)C)[C@@H](C)O)C(=O)N[C@@H](CC(N)=O)C(=O)N[C@@H](CCSC)C(=O)N[C@@H](CC(C)C)C(=O)N[C@H](C(=O)N[C@@H](CCCNC(=N)N)C(=O)N1CCC[C@H]1C(=O)N[C@@H](CCCNC(=N)N)C(=O)N[C@@H](Cc1ccc(O)cc1)C(N)=O)[C@@H](C)O [SEQ ID NO: 2, hPP(1-36)]?
Answer: time after administration at which the effect in reducing food intake has disappeared ([1]; Study 6A, fasted lean C57BL/6 mice, 1.0 μmol/kg s.c.): 12 h; Mean cumulative food intake ([1]; fasted lean C57BL/6 mice, single 1.0 μmol/kg s.c., 4 hours after injection, vehicle 1.51): 1.18 g; Mean cumulative food intake [g] ([1]; mice, 1.0 μmol/kg s.c., 6 hours after injection, vehicle 2.04): 1.51** g; Mean cumulative food intake [g] ([1]; mice, 1.0 μmol/kg s.c., 8 hours after injection, vehicle 2.61): 1.98** g; Mean cumulative food intake ([1]; mice, 1.0 μmol/kg s.c., 12 hours after injection, vehicle 3.49): 3.19 g; Mean cumulative food intake ([1]; mice, 1.0 μmol/kg s.c., 24 hours after injection, vehicle 4.35): 3.87 g; Mean cumulative food intake ([1]; mice, 1.0 μmol/kg s.c., 36 hours after injection, vehicle 8.41): 7.93 g; Mean cumulative food intake ([1]; mice, 1.0 μmol/kg s.c., 48 hours after injection, vehicle 8.87): 8.56 g; half-life ([2]; 15 nmol/kg): 2.1 min; half-life ([2]; 45 nmol/kg): 1.86 min; half-life reported in man [3]: 7 min
